Structures are written as SMILES. Structures can show the parent of a compound that is named as a salt.

From patent US20220016061A1, “Preparation Stabilized by Means of Nonaqueous Solvent” (MEDRx Co., Ltd., priority 2018, published 2022) come the findings set out here.

A short description of data set [1]: Assessment of stability of baclofen hydrochloride solution (Example 3). In kind it is physicochemical. As to conditions: water, NMP, propylene glycol, glycerin; 50° C. As to the method: Baclofen (10.0 g) was dissolved in 10% hydrochloric acid (20 g), the solvent in the prepared solution was frozen, and then the frozen product was dried in a lyophilizer overnight to give baclofen hydrochloride.
The resulting baclofen hydrochloride was dissolved in water, NMP (N-methylpyrrolidone), propylene glycol or glycerin to prepare each solution comprising baclofen hydrochloride in an amount of 0.25% by weight. Each of the prepared solutions was stored at 50° C. and the contexts of baclofen and ring products thereof in the solutions were measured after 1 and 2 weeks of the storage to assess the stability of baclofen.

Data set [2] can be described thus: Solubility of baclofen in solvents. The data set is classed as physicochemical. The text has this:
The concentration of baclofen was insufficient to be used as an external preparation.

Take `NCC(CC(=O)O)c1ccc(Cl)cc1` (stereo not shown) [Baclofen hydrochloride]: in data set [1], the “stability when dissolved in the solvents” value is “stable”.
For the molecule `NCC(CC(=O)O)c1ccc(Cl)cc1` (stereo not shown) [baclofen, 4-amino-3-(4-chloropehnyl)butanoic acid], in data set [2] (10% hydrochloric acid), the “solubility in 10% hydrochloric acid” value is given as “about 39%”. In data set [2] (lactic acid), the “solubility in lactic acid” value was “about 33%”. Further, the solubility in water entry in data set [2] (water) is “about 0.27%”.
